Results taken from patent US12104178B2, “DHFR tunable protein regulation” (Obsidian Therapeutics, Inc., priority 2017, dated 2024).
Where two headings read alike, the source gives them in different places. Each block holds one molecule with its values, some of them ahead of it.

What was measured:
[1] = system: HEK-293T cells; assay: DD-IL15 induction, human IL15 ELISA (Table 80); type: cell-based; conditions: DD-IL15 (OT-IL15-002, ecDHFR-IL15) in HEK-293T, TMP 24 hrs
Procedure: To test ligand dependent IL15 production, 1 million HEK-293T cells were plated in a 6-well plate in growth media containing DMEM and 10% FBS and incubated overnight at 37° C. at 5% CO2. Cells were then transfected with 100 ng of OT-IL15-001(constitutive) or OT-IL15-002 (ecDHFR-IL15) using Lipofectamine 2000 and incubated for 48 hrs. […] Media was collected and the undiluted samples or samples diluted 4, 16, 256, 1024, 4096 or 16384-fold were tested using human IL15 ELISA. The stabilization ratio was defined as fold change in IL15 expression with ligand treatment compared to treatment with DMSO (i.e. in the absence of ligand) with the same construct.

[2] = system: T cells; assay: TMP dose and exposure time on membrane bound IL15 expression (Table 89); type: cell-based; conditions: T-cell
Procedure: For this purpose, T cells were activated with CD3/CD28 beads at 3:1 bead to T cell ratio in 24-well plates for 24 hrs. Lentivirus was added to wells. After 24 hrs, fresh media was added every 2-3 days to expand cells while maintaining cells at 0.5-1×10^6/ml. On day 11 of expansion.

[3] = system: T cells; conditions: human, 160 μM
Procedure: The percentage of divided cells within the CD4 and the CD8 populations of T cells was measured using FACS.

[4] = in vivo; conditions: Balb/C nu/nu, mouse, plasma
[5] = system: NK-92 cells; assay: NK-92 activation markers with IL15 (Tables 82, 84); type: cell-based; conditions: for pSTAT5 (15 mins) / pSTAT5 (60 mins) / CD69 / CXCR4 / Granzyme B / IFNgamma / Perforin: NK-92 cells, fold change; for pSTAT5 (15 mins) / pSTAT5 (60 mins): FACS; for CD69 / CXCR4 / Granzyme B / IFNgamma / Perforin: activation marker by FACS
Procedure: (§1) The dependency of the NK-92 cells on cytokines for activation was tested. […] The cells were cultured for 18 hours in the presence of IL12 (10 ng/ml) or varying concentrations of IL15 (100 ng/ml, 20 ng/ml, 4 ng/ml, 0.8 ng/ml, 0.16 ng/ml, 0.032 ng/ml, 0.0064 ng/ml and 0.00128 ng/ml). NK-92 cell activation in response to IL15 and IL12 treatment was evaluated by FACS analysis using a panel of markers whose increased expression is associated with NK activation. These include NKG2D, CD71, CD69; chemokine receptors such as CCR5, CXCR4, and CXCR3, Perforin, Granzyme B and Interferon gamma (IFNg). Prior to FACS analysis for IFNg, cells were cultured for 4 hours with Brefeldin A. NK cells respond to external stimuli such as cytokines in their environment through the phosphorylation of proteins JAK/STAT, ERK, and p38/MAPK pathways which are important for cell activation, signaling and differentiation pathways. The phosphorylation of AKT, STAT3 and STAT5 in response to cytokine addition was measured by FACS. Since phosphorylation events are transient NK-92 cells were treated with the cytokines for 15 or 60 minutes, prior to the analysis.
as §1, with “of” for “of IL12 (10 ng/ml) or”, “IL15” for “IL15 and IL12”, “Perform,” for “Perforin,”

[6] = system: NK-92 cells; assay: Cytokine dependent proliferation of NK-92, Jurkat and SupT1 cells; type: cell-based; conditions: 3 days
Procedure: The dependency of immune cells on cytokines for proliferation was tested in NK-92 cells and T cell lines Jurkat cells and SupT1 cells. Cells were seeded at 40,000 per well and cultured in the presence of IL2 or IL15 for 3 days.

EC50 ([2]; 6 h, read-out: EC50, uM (% IL15 + IL15Ra+)): 0.021 µM
EC50 ([2]; 6 h, read-out: EC50, uM (total IL15 MFI)): 0.03 µM
EC90 ([2]; 6 h, read-out: EC90, uM (% IL15 + IL15Ra+)): 0.81 µM
EC90 ([2]; 6 h, read-out: EC90, uM (total IL15 MFI)): 0.88 µM
EC50 ([2]; 24 h, read-out: EC50, uM (% IL15 + IL15Ra+)): 0.035 µM
EC50 ([2]; 24 h, read-out: EC50, uM (total IL15 MFI)): 0.063 µM
EC90 ([2]; 24 h, read-out: EC90, uM (% IL15 + IL15Ra+)): 0.255 µM
EC90 ([2]; 24 h, read-out: EC90, uM (total IL15 MFI)): 0.75 µM
EC50 ([2]; read-out: EC50, uM (% IL15 + IL15Ra+)): 11.5 µM
EC50 ([2]; read-out: EC50, uM (total IL15 MFI)): 11.1 µM
EC90 ([2]; read-out: EC90, uM (% IL15 + IL15Ra+)): 59.6 µM
EC90 ([2]; read-out: EC90, uM (total IL15 MFI)): 66.9 µM
TMP concentration in the plasma at early time points (100 mg/kg): 50 to 100 µM
TMP concentration in the plasma at early time points (300 mg/kg): 100 to 150 µM
TMP levels in the plasma 4 hours after dosing (all doses): Virtually no TMP levels were detected
Reduction in the percentage of divided cells [3]: 70-90%
concentration at 0.083 h ([4]; 30 mg/kg): 25.7 µM
concentration at 0.25 h ([4]; 30 mg/kg): 19.6 µM
concentration at 0.5 h ([4]; 30 mg/kg): 9.84 µM
concentration at 1 h ([4]; 30 mg/kg): 2.55 µM
concentration at 2 h ([4]; 30 mg/kg): 1190 nM
concentration at 4 h ([4]; 30 mg/kg): 160 nM
concentration at 8 h ([4]; 30 mg/kg): 40 nM
concentration at 0.083 h ([4]; 100 mg/kg): 81.5 µM
concentration at 0.25 h ([4]; 100 mg/kg): 78.1 µM
concentration at 0.5 h ([4]; 100 mg/kg): 58.8 µM
concentration at 1 h ([4]; 100 mg/kg): 27.6 µM
concentration at 2 h ([4]; 100 mg/kg): 2970 nM
concentration at 8 h ([4]; 100 mg/kg): 560 nM
concentration at 24 h ([4]; 100 mg/kg): 10 nM
concentration at 0.083 h ([4]; 300 mg/kg): 117 µM
concentration at 0.25 h ([4]; 300 mg/kg): 137 µM
concentration at 0.5 h ([4]; 300 mg/kg): 128 µM
concentration at 1 h ([4]; 300 mg/kg): 80 µM
concentration at 2 h ([4]; 300 mg/kg): 32600 nM
concentration at 4 h ([4]; 300 mg/kg): 1030 nM
concentration at 8 h ([4]; 300 mg/kg): 300 nM
concentration at 24 h ([4]; 300 mg/kg): 10 nM
Molecule: COc1cc(Cc2cnc(N)nc2N)cc(OC)c1OC [TMP, Trimethoprim]
IL15 ELISA reading, 10 μM TMP ([1]; media dilution 1-fold): 0.820
IL15 ELISA reading, 10 μM TMP ([1]; media dilution 4-fold): 0.287
IL15 ELISA reading, 10 μM TMP ([1]; media dilution 16-fold): 0.116
IL15 ELISA reading, 10 μM TMP ([1]; media dilution 64-fold): 0.073
IL15 ELISA reading, 10 μM TMP ([1]; media dilution 256-fold): 0.057
IL15 ELISA reading, 10 μM TMP ([1]; media dilution 1024-fold): 0.048
IL15 ELISA reading, 10 μM TMP ([1]; media dilution 4096-fold): 0.049
IL15 ELISA reading, 10 μM TMP ([1]; media dilution 16384-fold): 0.049

Molecule: IL15: cytokine added to NK-92 cells
NK-92 activation marker expression ([5]; IL15 0.00128-100 ng/ml, 18 h): increase in the expression of CD69, CXCR4, Perforin, Granzyme B, and IFNg
pSTAT5 (15 mins) ([5]; IL15 0.00128 ng/ml): 0.99
pSTAT5 (60 mins) ([5]; IL15 0.00128 ng/ml): 1.04
CD69 ([5]; IL15 0.00128 ng/ml): 1.07
CXCR4 ([5]; IL15 0.00128 ng/ml): 1.15
Granzyme B ([5]; IL15 0.00128 ng/ml): 0.88
IFNgamma ([5]; IL15 0.00128 ng/ml): 1.19
Perforin ([5]; IL15 0.00128 ng/ml): 0.85
pSTAT5 (15 mins) ([5]; IL15 0.0064 ng/ml): 1.03
pSTAT5 (60 mins) ([5]; IL15 0.0064 ng/ml): 1.26
CD69 ([5]; IL15 0.0064 ng/ml): 1.11
CXCR4 ([5]; IL15 0.0064 ng/ml): 1.19
Granzyme B ([5]; IL15 0.0064 ng/ml): 0.78
IFNgamma ([5]; IL15 0.0064 ng/ml): 0.85
Perforin ([5]; IL15 0.0064 ng/ml): 0.79
pSTAT5 (15 mins) ([5]; IL15 0.032 ng/ml): 1.23
pSTAT5 (60 mins) ([5]; IL15 0.032 ng/ml): 1.67
CD69 ([5]; IL15 0.032 ng/ml): 1.05
CXCR4 ([5]; IL15 0.032 ng/ml): 1.14
Granzyme B ([5]; IL15 0.032 ng/ml): 0.92
IFNgamma ([5]; IL15 0.032 ng/ml): 0.95
Perforin ([5]; IL15 0.032 ng/ml): 0.92
pSTAT5 (15 mins) ([5]; IL15 0.8 ng/ml): 1.76
pSTAT5 (60 mins) ([5]; IL15 0.8 ng/ml): 2.17
CD69 ([5]; IL15 0.8 ng/ml): 1.18
CXCR4 ([5]; IL15 0.8 ng/ml): 2.10
Granzyme B ([5]; IL15 0.8 ng/ml): 1.09
IFNgamma ([5]; IL15 0.8 ng/ml): 1.92
Perforin ([5]; IL15 0.8 ng/ml): 1.16
pSTAT5 (15 mins) ([5]; IL15 4 ng/ml): 1.81
pSTAT5 (60 mins) ([5]; IL15 4 ng/ml): 2.35
CD69 ([5]; IL15 4 ng/ml): 1.59
CXCR4 ([5]; IL15 4 ng/ml): 3.03
Granzyme B ([5]; IL15 4 ng/ml): 1.16
IFNgamma ([5]; IL15 4 ng/ml): 2.76
Perforin ([5]; IL15 4 ng/ml): 1.28
pSTAT5 (15 mins) ([5]; IL15 20 ng/ml): 1.96
pSTAT5 (60 mins) ([5]; IL15 20 ng/ml): 2.35
CD69 ([5]; IL15 20 ng/ml): 2.10
CXCR4 ([5]; IL15 20 ng/ml): 3.62
Granzyme B ([5]; IL15 20 ng/ml): 1.40
IFNgamma ([5]; IL15 20 ng/ml): 5.55
Perforin ([5]; IL15 20 ng/ml): 1.57
pSTAT5 (15 mins) ([5]; IL15 100 ng/ml): 1.98
pSTAT5 (60 mins) ([5]; IL15 100 ng/ml): 2.34
CD69 ([5]; IL15 100 ng/ml): 1.91
CXCR4 ([5]; IL15 100 ng/ml): 3.87
Granzyme B ([5]; IL15 100 ng/ml): 1.48
IFNgamma ([5]; IL15 100 ng/ml): 9.00
Perforin ([5]; IL15 100 ng/ml): 1.67
NK-92 cell numbers [6]: increased cell numbers
